According to patent US20220229068A1, “DETECTION OF PROTEIN TO PROTEIN INTERACTIONS” (THE GOVERNING COUNCIL OF THE UNIVERSITY OF TORONTO, priority 2019, published 2022):

System: MAPK1/ELK1 interaction
Assay: SIMPL kinase/substrate interactions (ELISA and Western blot)
Format: cell-based, human
Conditions: kinase-IN / substrate-IC, stimulation
Description: Cell culture and treatment. HEK 293 and HeLa cell lines were generous gifts from Dr. J. Moffat. HEK 293 Flp-In T-Rex cell line was a generous gift from Dr. A. C. Gingras. These cells were grown in DMEM supplemented with 10% fetal calf serum (Life Technologies). PC9 cell line was a generous gift from Dr. P. Jannes and they were grown in RPMI 1640 medium supplemented with 10% fetal calf serum. For ELISA assay, cells were seeded in 96 well (Sarstedt AG & Co) or 384 well plates (Greiner Bio-One) with 15,000 (96 well) or 5,000 (384 well) cells per well. Cells were transfected with various plasmids with polyethylenimine (PEI) Max (Polysciences). Expression in HEK 293 Flp-In T-Rex cells was induced by treating the cells with tetracycline (1 μg/ml) for 6-16 hrs. […] Stable cell lines were created according to the manual of Flp-In T-REx (Invitrogen). Briefly, plasmid containing both bait and prey DNA and pOG44 plasmid (1:10 ratio) were cotransfected into HEK 293 Flp-In T-Rex cells.
Western blot analysis and immunoprecipitation. Cells were lysed in buffer H (Triton X 100 1%, β-glycerophosphate pH7.3 50 mM, EGTA 1.5 mM, EDTA 1 mM, orthovanadate 0.1 mM, DTT 1 mM supplemented with protease inhibitors (Roche)). […]
ELISA. […] The plate was washed 3 times with PBST followed by chemiluminescence reading using SuperSignal ELISA Pico substrate (ThermoFisher). […]

Tetradecanoylphorbol acetate [TPA]
MAPK1/ELK1 interaction after MAPK1 activation: enhanced MAPK1/ELK1 interaction
